Series [1] has as its system RPMI 8402 cells. The series can be described thus: MTT cytotoxicity assay, RPMI 8402. Particulars: continuous exposure for four days. In kind it is cell-based, human. The procedure:
(§1) Each N,N-dimethylamino-substituted macrocycle was also evaluated for cytotoxic activity against a human lymphoblastoma RPMI 8402 and a human epidermoid carcinoma KB3-1 cell line (Table 2). The results from these assays are informative about the relationship of structure to cytotoxic activity among the PyPX macrocyclic G-quadruplex stabilizers. […] An explanation for this observation is not clear at this time. The three-carbon analogs 12 and 22 have nearly equivalent activity at both positions, but these longer-chain analogs are generally lower in activity than the two-carbon analogs. Attachment of the dimethylamino group directly to the phenyl ring (8 and 19) leads to compounds having the greatest cytotoxic potency at their respective points of attachment. […] In general analogs that have an even number (0 or 2) of methylene spacer groups are more cytotoxic than those with an odd number. […] Moving the side-chain away from the phenyl ring and onto an oxazole ring also fails to improve cytotoxic activity.
(§2) Cytotoxicity was determined using the MTT-microtiter plate tetrazolinium assay (MTA). The human lymphoblast RPMI 8402 cell line was provided by Dr. Toshiwo Andoh (Aichi Cancer Center Research Institute, Nagoya, Japan). The KB3-1 cell line was obtained from K.V. Chin (The Cancer Institute of New Jersey, New Brunswick, NJ, USA). The cytotoxicity assay was performed using 96-well microtiter plates. Cells were grown in suspension at 37 °C in 5% CO2 and maintained by regular passage in RPMI medium supplemented with 10% heat inactivated fetal bovine serum, L-glutamine (2 mM), penicillin (100 U/mL), and Streptomycin (0.1 mg/mL). For determination of IC50 values, cells were exposed continuously for four days to varying concentrations of drug, and MTT assays were performed at the end of the fourth day. […] All assays were performed at least twice in six replicate wells.
(Tetrazolium dyes change colour on reduction, which living cells bring about.)

In series [2] the test system is KB3-1 cells. The series is described as follows: MTT cytotoxicity assay, KB3-1. The format is cell-based, human. The following applies: continuous exposure for four days, means of at least two determinations ± standard deviation, read-out: IC50, KB3-1 wt. The procedure: as §1, §2
The subject of series [3] is Salmon testes (ST) duplex DNA. The series is described as follows: UV melting of salmon testes duplex DNA. Particulars: for ΔTtran, salmon testes duplex DNA: change in Ttran induced by compound, UV melting at 260 nm, pH 7.5, K+ 150 mM, uncertainty ± 0.5 °C; for ΔTtran, salmon testes duplex DNA / Ttran, salmon testes duplex DNA: ST DNA 15 µM base pair, drug 15 µM; for Ttran, salmon testes duplex DNA: first-derivative UV melting at 260 nm, 10 mM potassium phosphate pH 7.5, total K+ 150 mM, no drug: 86.6. The format is binding. The method, then: (§3) Each compound was evaluated for its ability to selectively bind and stabilize G-quadruplex DNA in the presence of K^+ ions (150 mM). Salmon testes (ST) DNA was employed as a model of duplex DNA and the human telomeric sequence d[T2G3(T2AG3)3A], denoted as hTel, was used as a model of quadruplex DNA. This sequence has been shown by Patel and co-workers, to exist as an intramolecular (3 + 1) G-quadruplex in which three strands are oriented in one direction and the fourth is oriented in the opposite direction in K^+ solution [35]. The first-derivative forms of the UV melting profiles for ST DNA and hTel DNA were recorded in the absence and presence of the various macrocycles. The ligand-induced changes, if any, in the transition temperature (Ttran) corresponding to the maxima (for quadruplex DNA) or minima (for duplex DNA) of these first-derivative melting profiles are listed in Table 1 for each macrocycle. With the exception of 8 which has a slight (<1 °C) destabilizing effect, none of the other macrocycles alters the thermal stability of ST duplex DNA to any significant extent and any observed changes in Ttran are within the experimental uncertainty. This observation is consistent with little or no duplex DNA binding by these macrocycles. Similar behavior has been observed for other macrocyclic pyridyl polyoxazoles. Temperature-Dependent Spectrophotometry. Temperature-dependent absorption experiments were conducted on an AVIV Model 14DS Spectrophotometer (Aviv Biomedical, Lakewood, NJ, USA) equipped with a thermoelectrically controlled cell holder. Quartz cells with a path length of 1.0 cm were used for all the absorbance studies. Temperature-dependent absorption profiles were acquired at either 260 nm (for ST duplex DNA) or 295 nm (for hTel quadruplex DNA) with a 5 s averaging time. The temperature was raised in 0.5 °C increments, and the samples were allowed to equilibrate for 1 min at each temperature setting. In the quadruplex melting studies, the hTel concentration was 5 µM in strand (120 μM in nucleotide). When present in these quadruplex studies, the drug concentrations were 20 µM. In the duplex melting studies the ST DNA concentrations were 15 µM base pair (30 μM in nucleotide) and, when present, the drug concentrations were 15 µM. The buffer for all the UV melting experiments contained 10 mM potassium phosphate (pH 7.5) and sufficient KCl (132 mM) to bring the total K^+ concentration to 150 mM. Prior to their use in the UV melting experiments, all nucleic acid solutions were preheated at 90 °C for 5 min and slowly cooled to room temperature over a period of 4 hr.

For series [4], the system named is human telomeric sequence d[T2G3(T2AG3)3A] (hTel) quadruplex DNA. The series can be described thus: UV melting of hTel quadruplex DNA (G-quadruplex stabilization). Particulars: hTel 5 µM strand, drug 20 µM; for ΔTtran, hTel quadruplex DNA: change in Ttran induced by compound, UV melting at 295 nm, pH 7.5, K+ 150 mM, uncertainty ± 0.5 °C; for Ttran, hTel quadruplex DNA: first-derivative UV melting at 295 nm, 10 mM potassium phosphate pH 7.5, total K+ 150 mM, no drug: 64.6. In kind it is binding. The procedure:
as §3

Series [5] is described as follows: Water-solubility (qualitative). Particulars: qualitative statement, method not given. The format is physicochemical.
Series [6] deals with KB3-1 cells. Particulars: range given for analogs 1 and 2 together; ref [21]; read-out: IC50 against KB3-1 cells; cited from earlier work. The text has this: (§4) Table 2 Relative cytotoxic activities. IC50 values (μM) ^a. | column: KB3-1 wt. || The development of G-quadruplex stabilizers as a potential new class of anticancer agents hinges on the ability to design compounds that stabilize only G-quadruplexes and not other nucleic acid structures such as duplex or triplex DNA [15]. While a diverse array of compounds have been reported to stabilize G-quadruplex DNA [1], most also have some ability to stabilize duplex DNA. The natural product telomestatin for example, is reported to stabilize G-quadruplex DNA with 70:1 selectivity over duplex DNA [16, 17]. In contrast, the synthetic macrocyclic hexaoxazole HXDV (Figure 1) demonst ...

Series [7] concerns RPMI 8402 cells. The following applies: range given for analogs 1 and 2 together; ref [21]; read-out: IC50 against RPMI 8402 cells; cited from earlier work.
Description: as §4, with “RPMI 8402” for “KB3-1 wt.”

[8] abbreviates: means of at least two determinations ± standard deviation.

Read-outs that look alike come from different tables or passages of the source. Where only a bound is given, the exact number is not on record here.

The IC50 is the midpoint of a concentration-inhibition curve. As for `CN(C)CCc1ccc2cc1CNC(=O)c1coc(n1)-c1coc(n1)-c1cccc(n1)-c1nc(co1)-c1nc(co1)C(=O)NC2` [Compound 11, Pyridyl tetraoxazole macrocycle with a 4-[2-(N,N-dimethylamino)ethyl] group on the phenyl ring], the IC50 in series [1] (setting [8]) came out at 500 ± 400 nM. Also, the IC50 in series [2] is 70 ± 70 nM. For the same compound, in series [3], the “ΔTtran, salmon testes duplex DNA” value was −0.4 °C and the “Ttran, salmon testes duplex DNA” value worked out at 86.2 °C. Also, in series [4], the “ΔTtran, hTel quadruplex DNA” value was determined as 24.6 °C and the “Ttran, hTel quadruplex DNA” value worked out at 89.2 °C.
`CN(C)c1ccc2cc1CNC(=O)c1coc(n1)-c1coc(n1)-c1cccc(n1)-c1nc(co1)-c1nc(co1)C(=O)NC2` [Compound 8, Pyridyl tetraoxazole macrocycle with a 4-(N,N-dimethylamino) group on the phenyl ring]: in series [5], the water-solubility entry is on record as “significantly less water-soluble”. In series [1] (single determination), this compound displayed an IC50 of 120 nM. The IC50 in series [2] worked out at 30 nM. Also, in series [3], the “ΔTtran, salmon testes duplex DNA” value was −0.9 °C and the “Ttran, salmon testes duplex DNA” value amounted to 85.7 °C. Further, in series [3] (size of the decrease in Ttran), the “destabilizing effect on ST duplex DNA (thermal stability)” value was less than 1 °C. In series [4], the “ΔTtran, hTel quadruplex DNA” value turned out to be 20.5 °C and the “Ttran, hTel quadruplex DNA” value is 85.1 °C.
Compound `CN(C)CCc1oc2nc1C(=O)NCc1cccc(c1)CNC(=O)c1nc(oc1CCN(C)C)-c1coc(n1)-c1cccc(n1)-c1nc-2co1` [Compound 37, Pyridyl tetraoxazole macrocycle with two 2-(N,N-dimethylamino)ethyl side chains] yielded an IC50 in series [1] (setting [8]) of 1500 nM. In addition, the IC50 in series [2] stood at 400 ± 100 nM. For the same compound, in series [3], the “ΔTtran, salmon testes duplex DNA” value is −0.4 °C and the “Ttran, salmon testes duplex DNA” value was determined as 86.2 °C. Also, in series [4], the “ΔTtran, hTel quadruplex DNA” value was determined as 1.6 °C and the “Ttran, hTel quadruplex DNA” value is 66.2 °C.
As to `CN(C)c1cc2cc(c1)CNC(=O)c1coc(n1)-c1coc(n1)-c1cccc(n1)-c1nc(co1)-c1nc(co1)C(=O)NC2` [Compound 19, Pyridyl tetraoxazole macrocycle with a 5-N,N-dimethylamino group on the phenyl ring], the water-solubility entry in series [5] is “significantly less water-soluble”. Also, in series [1] (setting [8]), the IC50 stood at 60 ± 10 nM. Besides, the IC50 in series [2] amounted to 30 nM. In series [3], the “ΔTtran, salmon testes duplex DNA” value was −0.5 °C and the “Ttran, salmon testes duplex DNA” value was 86.1 °C. In series [4], the “ΔTtran, hTel quadruplex DNA” value worked out at 15.5 °C and the “Ttran, hTel quadruplex DNA” value was 80.1 °C.
`CN(C)Cc1cc2cc(c1)CNC(=O)c1coc(n1)-c1coc(n1)-c1cccc(n1)-c1nc(co1)-c1nc(co1)C(=O)NC2` [Compound 20, Pyridyl tetraoxazole macrocycle with a 5-(N,N-dimethylaminomethyl) group on the phenyl ring] displayed an IC50 in series [1] (setting [8]) of 7000 ± 4200 nM. For the same compound, the IC50 in series [2] was found to be 5500 ± 700 nM. In addition, in series [3], the “ΔTtran, salmon testes duplex DNA” value is −0.4 °C and the “Ttran, salmon testes duplex DNA” value was 86.2 °C. For the same compound, in series [4], the “ΔTtran, hTel quadruplex DNA” value was 0.1 °C and the “Ttran, hTel quadruplex DNA” value was 64.7 °C.
The compound `CN(C)CCCc1ccc2cc1CNC(=O)c1coc(n1)-c1coc(n1)-c1cccc(n1)-c1nc(co1)-c1nc(co1)C(=O)NC2` [Compound 12, Pyridyl tetraoxazole macrocycle with a 4-[3-(N,N-dimethylamino)propyl] group on the phenyl ring] displayed an IC50 in series [1] (setting [8]) of 400 nM. Moreover, the IC50 in series [2] stood at 250 ± 70 nM. Also, in series [3], the “ΔTtran, salmon testes duplex DNA” value was −0.4 °C and the “Ttran, salmon testes duplex DNA” value was found to be 86.2 °C. Also, in series [4], the “ΔTtran, hTel quadruplex DNA” value is 7.1 °C and the “Ttran, hTel quadruplex DNA” value came to 71.7 °C.
The compound `CN(C)CCCc1cc2cc(c1)CNC(=O)c1coc(n1)-c1coc(n1)-c1cccc(n1)-c1nc(co1)-c1nc(co1)C(=O)NC2` [Compound 22, Pyridyl tetraoxazole macrocycle with a 5-[3-(N,N-dimethylamino)propyl] group on the phenyl ring] gave an IC50 in series [1] (setting [8]) of 500 ± 100 nM. Also, the IC50 in series [2] was found to be 220 ± 130 nM. Moreover, in series [3], the “ΔTtran, salmon testes duplex DNA” value was −0.4 °C and the “Ttran, salmon testes duplex DNA” value came out at 86.2 °C. Besides, in series [4], the “ΔTtran, hTel quadruplex DNA” value came out at 28.6 °C and the “Ttran, hTel quadruplex DNA” value stood at 93.2 °C.
On to `NCCc1cc2cc(c1)CNC(=O)c1coc(n1)-c1coc(n1)-c1cccc(n1)-c1nc(co1)-c1nc(co1)C(=O)NC2` [Compound 1], for which the figures for the IC50 in series [6] and in series [7] were 30 to 40 nM and 90 to 180 nM, respectively.
`CN(C)CCc1oc2nc1C(=O)NCc1cccc(c1)CNC(=O)c1coc(n1)-c1coc(n1)-c1cccc(n1)-c1nc-2co1` [Compound 36, Pyridyl tetraoxazole macrocycle with a single 2-(N,N-dimethylamino)ethyl side chain]: the water-solubility result in series [5] is “good water-solubility”. In addition, the IC50 in series [1] (setting [8]) turned out to be 280 ± 40 nM. In addition, the IC50 in series [2] was 140 ± 20 nM. Further, in series [3], the “ΔTtran, salmon testes duplex DNA” value is −0.4 °C and the “Ttran, salmon testes duplex DNA” value was 86.2 °C. Also, in series [4], the “ΔTtran, hTel quadruplex DNA” value was 4.6 °C and the “Ttran, hTel quadruplex DNA” value came to 69.2 °C.

Values taken from paper PMC3949622, “Macrocyclic Pyridyl Polyoxazoles: Structure-Activity Studies of the Aminoalkyl Side-Chain on G-Quadruplex Stabilization and Cytotoxic Activity” (Molecules, 2013).
